According to patent US20210275449A1, “Inhalable Formulation of a Solution Containing Glycopyrronium Bromide” (priority 2020, published 2021):

Experiments:
[1] = Aerodynamic particle size distribution of Sample VI by Next Generation Impactor (NGI), soft mist inhaler; format: physicochemical; details: NGI 30 L/minute, RH 90±2%
Protocol: The aerodynamic particle size distribution was determined using a Next Generation Impactor instrument (NGI). The soft mist inhaler was held close to the NGI inlet until no aerosol was visible. The flow rate of the NGI was set to 30 L/minute and was operated under ambient temperature and a relative humidity (RH) of 90±2%.
Sample VI was discharged into the NGI. Fractions of the dose were deposited at different stages of the NGI, in accordance with the particle size of the fraction. Each fraction was washed from the stage and analyzed using HPLC.
The particle size distribution was expressed in terms of mass median aerodynamic diameter (MMAD) and geometric standard deviation (GSD).

[2] = Aerodynamic particle size distribution by Andersen Cascade Impactor (ACI); format: physicochemical; details: Samples I-V, flow rate 28.3 L/min
Protocol: An Andersen Cascade Impactor instrument (ACI) was used to determine the particle size distribution of Samples I-V. The test was conducted at a flow rate of 28.3 L/min. Deposition of the active substance on each ACI plate was confirmed by high pressure liquid chromatography. The particle size was expressed in terms of mass median aerodynamic diameter (MMAD) and Geometric Standard Deviation (GSD).

Substance: (3RS)-3-[(2 SR)-(2-cyclopentyl-2-hydroxy-2-penylacetyl)oxy]-1,1-dimethlypyrrolidinium bromide [Glycopyrronium bromide]
- Fine Particle Fraction (FPF) [1]: 70.45%
- Fine particle dose (FPD) [1]: 8.44 µg
- GSD [1]: less than 2
- MMAD [1]: less than 6 μm
- GSD ([1]; listed as Glycopyrrolate): 1.77
- MMAD ([1]; listed as Glycopyrrolate): 4.05 μm
- GSD [2]: 1.7
- MMAD [2]: 4.4 μm
